Assay results published in ChEMBL document CHEMBL2203090, “Synthesis and Evaluation of 5-Fluoro-2-aryloxazolo[5,4-b]pyridines as β-Amyloid PET Ligands and Identification of MK-3328” (ACS Med Chem Lett, 2011).
pIC50, pKd: −log10 of the molar value. The source made the active and inactive calls. The rule behind the calls is not given here.

Legend:
[1] = biological target: T1, Amyloid-beta precursor protein (Homo sapiens, UniProt P05067); assay: […] amyloid beta plaque in cortex homogenate isolated from Alzheimer disease patient at 6.4 nM after 90 mins by scintillation counting in presence of 5-Fluoro-2-(1-methyl-1H-indol-5-yl)-oxazolo[5,4-b]pyridine; format: tissue-based; conditions: tested as the 3H-labelled form
T1 sequence (P05067 whole entry): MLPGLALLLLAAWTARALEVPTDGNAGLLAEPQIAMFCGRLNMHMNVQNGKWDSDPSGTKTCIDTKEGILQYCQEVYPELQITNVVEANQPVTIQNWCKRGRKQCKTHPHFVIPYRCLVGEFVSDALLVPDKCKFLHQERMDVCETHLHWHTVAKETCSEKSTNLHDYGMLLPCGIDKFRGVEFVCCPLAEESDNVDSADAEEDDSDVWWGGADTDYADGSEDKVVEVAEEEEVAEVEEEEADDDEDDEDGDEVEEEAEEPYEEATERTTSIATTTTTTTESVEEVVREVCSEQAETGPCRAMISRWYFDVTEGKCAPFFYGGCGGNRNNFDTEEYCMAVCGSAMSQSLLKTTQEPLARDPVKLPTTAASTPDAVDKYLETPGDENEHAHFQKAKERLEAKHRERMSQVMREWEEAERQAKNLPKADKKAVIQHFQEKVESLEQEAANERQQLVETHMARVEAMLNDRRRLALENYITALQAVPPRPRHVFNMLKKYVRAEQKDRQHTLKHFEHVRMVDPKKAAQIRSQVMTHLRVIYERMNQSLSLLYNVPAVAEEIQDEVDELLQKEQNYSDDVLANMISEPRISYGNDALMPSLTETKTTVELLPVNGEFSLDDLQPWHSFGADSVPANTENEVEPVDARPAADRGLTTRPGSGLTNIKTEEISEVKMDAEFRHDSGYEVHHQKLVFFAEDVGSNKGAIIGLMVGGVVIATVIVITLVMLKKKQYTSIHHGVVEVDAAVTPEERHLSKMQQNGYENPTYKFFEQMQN

[2] = tested on: P-gp (Homo sapiens); assay: Activity at human P-gp expressed in pig LLC-PK1 cells assessed as passive apparent permeability
[3] = biological target: T1, Amyloid-beta precursor protein; assay: Binding affinity to amyloid beta plaque in cortex homogenate isolated from Alzheimer disease patient at 5 nM after 90 mins by autoradiography; format: tissue-based; conditions: tested as the 3H-labelled form
[4] = biological target: T1, Amyloid-beta precursor protein; assay: […] amyloid beta plaque in cortex homogenate isolated from Alzheimer disease patient after 90 mins by scintillation counting; format: tissue-based; conditions: for Bmax: tested as the 3H-labelled form
[5] = tested on: P-gp; assay: Activity at human P-gp expressed in LLC-PK1 cells assessed as efflux ratio of apparent permeability; format: ADME, cell-based
[6] = biological target: T1, Amyloid-beta precursor protein; assay: Ratio of Bmax to Kd for amyloid beta plaque in cortex homogenate isolated from Alzheimer disease patient; format: tissue-based; conditions: tested as the 3H-labelled form
[7] = biological target: T1, Amyloid-beta precursor protein; assay: Binding affinity to human amyloid beta plaque
[8] = Drug uptake in rhesus monkey cortex up to 90 mins; format: ADME, tissue-based, Macaca mulatta; conditions: in vivo, 1.5 h
[9] = tested on: Brain; assay: Drug uptake in rhesus monkey brain white matter up to 90 mins; format: ADME, tissue-based, Macaca mulatta; conditions: in vivo, 1.5 h
[10] = Drug uptake in rhesus monkey cerebellum after 90 mins; format: ADME, tissue-based, Macaca mulatta; conditions: in vivo, 1.5 h
[11] = Drug uptake in rhesus monkey cortex after 90 mins; format: ADME, tissue-based, Macaca mulatta; conditions: in vivo, 1.5 h
[12] = Drug uptake in rhesus monkey cerebellum up to 90 mins; format: ADME, tissue-based, Macaca mulatta; conditions: in vivo, 1.5 h
[13] = biological target: T1, Amyloid-beta precursor protein; assay: […] amyloid beta plaque in cortex homogenate isolated from Alzheimer disease patient at 9.6 nM after 90 mins by scintillation counting in presence of 5-Fluoro-2-(1-methyl-1H-pyrrolo[2,3-b]pyridin-5-yl)-oxazolo[5,4-b]pyridine; format: tissue-based; conditions: tested as the 3H-labelled form
[14] = biological target: T1, Amyloid-beta precursor protein; assay: […] amyloid beta plaque in cortex homogenate isolated from Alzheimer disease patient at 4.2 nM after 90 mins by scintillation counting in presence of [4-(5-Fluoro-oxazolo[5,4-b]pyridin-2-yl)-phenyl]-dimethyl-amine; format: tissue-based; conditions: tested as the 3H-labelled form

| Structure (SMILES) | Papp [2] [×10⁻⁶ cm/s] | efflux ratio [5] | pIC50 [7] | other results |
| --- | --- | --- | --- | --- |
| Cn1ccc2cc(-c3nc4ccc(F)nc4o3)ccc21 | > 20 | < 3 | 8.10 | Activity [1]: 50%; Activity [3]: inactive; Bmax [4]: 1450 nM; Ratio [6]: 232 |
| CNc1ccc(-c2nc3ccc(F)nc3o2)cc1 | > 20 | < 3 | 7.64 |  |
| Cn1ccc2cc(-c3nc4ccc([18F])nc4o3)cnc21 |  |  |  | SUV [8]: 2.7; Drug uptake [9]: Not Active; Drug uptake [10]: Not Active; Drug uptake [11]: Not Active; SUV [12]: 3 |
| [3H]C([3H])([3H])N(C)c1ccc(-c2nc3ccc(F)nc3o2)cc1 |  |  |  | pKd [4]: 8.35 |
| Cn1cnc2cc(-c3nc4ccc(F)nc4o3)ccc21 | > 20 | < 3 | < 6.00 |  |
| [3H]C([3H])([3H])n1ccc2cc(-c3nc4ccc(F)nc4o3)ccc21 |  |  |  | pKd [4]: 8.19 |
| Fc1ccc2nc(-c3ccc4ncsc4c3)oc2n1 | > 20 | < 3 | 7.45 |  |
| COc1ccc(-c2nc3ccc(F)nc3o2)cc1 | > 20 | < 3 | 7.49 |  |
| Fc1ccc2nc(-c3cnc4[nH]ccc4c3)oc2n1 | > 20 | < 3 | 7.59 |  |
| CN(C)c1ccc(-c2nc3ccc(F)nc3o2)cn1 | > 20 | < 3 | 7.38 |  |
| Cn1ccc2cc(-c3nc4ccc(F)nc4o3)ncc21 | > 20 | < 3 | < 6.00 |  |
| Fc1ccc2nc(-c3ccc4[nH]ccc4c3)oc2n1 | > 20 | < 3 | 7.86 |  |
| [3H]C([3H])([3H])n1ccc2cc(-c3nc4ccc(F)nc4o3)cnc21 |  |  |  | pKd [4]: 8.02 |
| Cn1ncc2cc(-c3nc4ccc(F)nc4o3)ccc21 | > 20 | < 3 | 7.31 |  |
| CNc1ccc(-c2nc3ccc(F)nc3o2)cn1 | > 20 | < 3 | 6.99 |  |

Continued, in another order:

| Papp [2] [×10⁻⁶ cm/s] | efflux ratio [5] | pIC50 [7] | Structure (SMILES) | other results |
| --- | --- | --- | --- | --- |
| > 20 | < 3 | 7.34 | Fc1ccc2nc(-c3ccc4cc[nH]c4c3)oc2n1 |  |
| > 20 | < 3 | 7.33 | CN1CCc2cc(-c3nc4ccc(F)nc4o3)cnc21 |  |
| > 20 | < 3 | 7.98 | Cn1ccc2cc(-c3nc4ccc(F)nc4o3)cnc21 | Activity [13]: 35%; Activity [3]: Active; Bmax [4]: 1100 nM; Ratio [6]: 117 |
| > 20 | < 3 | 8.40 | CN(C)c1ccc(-c2nc3ccc(F)nc3o2)cc1 | Activity [14]: 50%; Activity [3]: Active; Bmax [4]: 2090 nM; Ratio [6]: 464 |
| > 20 | < 3 | 7.52 | Cn1ncc2cc(-c3nc4ccc(F)nc4o3)cnc21 |  |
